This is an account of results in patent publication EP1206248B1, “CONTROLLED-RELEASE SEDATIVE-HYPNOTIC COMPOSITIONS AND METHODS RELATED THERETO” (Neurocrine Biosciences, Inc., priority 1999, dated 2001).

Usually half-life stands for the time needed for the level to fall by half in the phase considered. Higher therefore signals slow loss. One may read the Vd as the apparent volume that relates the amount in the body to the concentration in plasma or blood. For orientation: logD means lipophilicity at a set pH, counting ionised and neutral species. By solubility is commonly meant how much of the substance goes into solution per volume. Read a high solubility as much dissolved substance.

In brackets after ≈: the same amount, converted by molar mass.

Data set [1] is described as follows: Plasma half-life and pharmacokinetic parameters from plasma concentration-time profiles. The note with it: human. The class given is in vivo. The source says:
The mean plasma half-life of a sedative-hypnotic compound may be determined using well known techniques. Terminal half-life may be determined using standard pharmacokinetic calculations, such as those presented by Rolland and Tozer (Clinical Pharmacokinetics Concepts and Applications, 3rd. Ed., Chap. 3, 1995). In addition, software is commercially available which performs this calculation, such as the product sold under the tradename "WinNinlin™" (Prof. Ver.1.5). […]
To assess the plasma concentration time profiles, plasma concentration, Tmax and Tmin may be determined using well known techniques. […] Any suitable assay may be used to determine plasma levels, such as ELISA, RIA, or chromatography (e.g., gas-liquid chromatography or high pressure liquid chromatography) linked to any suitable detection system such as UV, fluorescence, mass spectrometry or an electrochemical system). […]
In this experiment, commercially available plasma profiling sofltware (GastroPlus™) (Simulations Plus Inc., CA) was used to simulate the effects of varying controlled release profiles and pharmacokinetic parameters based on in vivo plasma concentrations of NBI-34060 as measured in 12-healty male human subjects. […]

Data set [2] in a line: log D partition coefficient.

`CC(=O)N(C)c1cccc(-c2ccnc3c(C(=O)c4cccs4)cnn23)c1` [NBI-34060, N-methyl-N-(3-{3-[2-thienylcarbonyl]-pyrazolo-[1,5-a]-pyrimidin-7-yl}-phenyl)acetamide] had a half-life in data set [1] (plasma half-life of NBI-34060) of 1.3 h. The Vd in data set [1] (male, one-compartment pharmacokinetic model, assuming 70 kg subject weight, read-out: volume of distribution (Vd)) was determined as 2.27 L/kg. The compound also had a pH-dependent lipophilicity (logD) in data set [2] of 1.73. In addition, the “resulting pH” value in “Solubility in water” (pH of the aqueous solution at approximately 20-30 µg/ml) is given as “approximately 8.0”. This compound also displayed a solubility in “Solubility in water” (water, pH 8, water) of 20 to 30 µg/mL (≈ 53.1 to 79.7 µM).
